≈ marks a conversion by molar mass, not a printed value. Where “and” joins values, the source holds several entries; their conditions need not be identical. Identical values can stand only once. Each block holds one compound with its values, some of them ahead of it.
Experiments:
[1] = (§1) DNDI: Metabolism; assay type: ADME, Microsome; conditions: rat, microsomes; for hepatic extraction ratio: read-out: EH
[2] = in vitro; conditions: mouse, microsomes
[3] = DNDI: Solubility, 24 hour, FeSSIF, 37C; assay type: physicochemical; conditions: read-out: Equilibrium
[4] = DNDI: Lipophilicity in water; assay type: physicochemical
[5] = DNDI: Protein binding in dog plasma; assay type: ADME, cell-free, Canis lupus familiaris; conditions: read-out: % bound
[6] = DNDI: Solubility, 24 hour, 50 mM phosphate - pH 7.4, 37C; assay type: physicochemical; conditions: 50 mM phosphate buffer, read-out: Equilibrium
[7] = DNDI: Protein binding in rat plasma; assay type: ADME, cell-free; conditions: read-out: % bound
[8] = DNDI: Solubility, 24 hour, 20 mM Citrate - pH 3, 37C; assay type: physicochemical; conditions: 20 mM citrate buffer, read-out: Equilibrium
[9] = (§2) DNDI: Stability, 4 hour; assay type: ADME, tissue-based, Canis lupus familiaris; conditions: dog, blood
[10] = in vitro; conditions: human, microsomes
[11] = as §2; assay type: ADME, cell-free; conditions: plasma
[12] = DNDI: Solubility, 24 hour, FaSSIF, 37C; assay type: physicochemical; conditions: read-out: Equilibrium
[13] = molecular target: Cytochrome P450 2D6 (Homo sapiens, UniProt P10635); test: (§3) DNDI: CYP Inhibition; assay type: ADME
[14] = molecular target: T1, Cytochrome P450 1A2 (Homo sapiens, UniProt P05177); test: as §3; assay type: ADME
T1 sequence (P05177 whole entry): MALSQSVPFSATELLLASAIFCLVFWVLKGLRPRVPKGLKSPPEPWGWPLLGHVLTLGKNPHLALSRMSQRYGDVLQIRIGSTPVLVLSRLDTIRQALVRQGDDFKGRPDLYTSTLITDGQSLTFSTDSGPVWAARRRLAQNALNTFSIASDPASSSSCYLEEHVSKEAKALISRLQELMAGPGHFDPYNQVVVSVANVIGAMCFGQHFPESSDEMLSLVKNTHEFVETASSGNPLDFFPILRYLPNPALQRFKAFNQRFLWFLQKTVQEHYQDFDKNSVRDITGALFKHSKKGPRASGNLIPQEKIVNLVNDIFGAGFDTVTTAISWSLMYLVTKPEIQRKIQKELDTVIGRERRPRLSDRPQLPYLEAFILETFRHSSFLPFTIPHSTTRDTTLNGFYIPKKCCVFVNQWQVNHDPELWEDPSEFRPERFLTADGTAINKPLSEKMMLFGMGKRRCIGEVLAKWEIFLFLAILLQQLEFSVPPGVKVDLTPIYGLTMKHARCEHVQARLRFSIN

[15] = as §2; assay type: ADME, cell-free, Canis lupus familiaris; conditions: dog, plasma
[16] = DNDI: Protein binding in human liver microsomes; assay type: ADME, Microsome; conditions: read-out: % bound (converted)
[17] = DNDI: Lipophilicity (gLogD) at pH 7.4; conditions: buffer, pH 7.4
[18] = DNDI: pKa; assay type: physicochemical; conditions: read-out: pKa(1)
[19] = test system: Trypanosoma cruzi; test: (§4) DNDI: Chagas in Vitro; assay type: functional, organism-based, Tulahuen C4 (LacZ)
[20] = DNDI: Solubility in 0.01M HCl at pH 2 determined by nephelometry
[21] = as §1; assay type: ADME, Canis lupus familiaris, Microsome; conditions: dog, microsomes
[22] = DNDI: Lipophilicity (eLogD) at pH 7.4; assay type: physicochemical; conditions: buffer
[23] = in vitro; conditions: human, microsomes; remark: listed apart in the source
[24] = test system: Trypanosoma cruzi; test: as §4; assay type: functional, Tulahuen C4 (LacZ)
[25] = DNDI: Protein binding in mouse plasma; assay type: ADME, cell-free; conditions: read-out: % bound
[26] = in vitro; conditions: mouse, microsomes; remark: listed apart in the source
[27] = as §2; assay type: ADME, tissue-based; conditions: blood
[28] = DNDI: Protein binding in human plasma; assay type: ADME, cell-free; conditions: read-out: % bound
[29] = (§5) DNDI: Solubility in phosphate buffer at pH 6.5 determined by nephelometry
[30] = DNDI: Protein binding 10% serum RPMI; assay type: ADME; conditions: RPMI medium with 10% serum; read-out: % bound (converted)
[31] = DNDI: Lipophilicity (eLogD) at pH 5; assay type: physicochemical; conditions: buffer
[32] = DNDI: Solubility, 24 hour, SGF, 37C; assay type: physicochemical; conditions: read-out: Equilibrium
[33] = DNDI: Solubility, 24 hour, 50 mM Phosphate - pH 2, 37C; assay type: physicochemical; conditions: 50 mM phosphate buffer, read-out: Equilibrium
[34] = (§6) DNDI: Lipophilicity (gLogD) at pH 3; conditions: buffer, pH 3
[35] = test system: Leishmania donovani; test: DNDI: Inhibition of formation of Leishmania donovani; assay type: functional, MHOM/ET/67/L82; design: concentration or dose not given beside the values
[36] = (§7) DNDI: Cytotoxicity against L-6 rat myoblasts from skeletal musclE; conditions: L6 rat skeletal muscle myoblasts, IC50
[37] = as §6; assay type: physicochemical; conditions: buffer
[38] = test system: Trypanosoma brucei rhodesiense; test: DNDI: HAT in Vitro; assay type: functional, organism-based; conditions: ATCC 30027
[39] = in vitro; conditions: human, microsomes; remark: listed apart in the source
[40] = as §5; assay type: physicochemical
[41] = molecular target: T2, Cytochrome P450 3A4 (Homo sapiens, UniProt P08684); test: as §3; assay type: ADME
[42] = test system: L6; test: as §7
[43] = molecular target: T2, Cytochrome P450 3A4
[44] = Trypanosoma cruzi, Tulahuen C4 (LacZ)

T2 sequence (P08684 whole entry): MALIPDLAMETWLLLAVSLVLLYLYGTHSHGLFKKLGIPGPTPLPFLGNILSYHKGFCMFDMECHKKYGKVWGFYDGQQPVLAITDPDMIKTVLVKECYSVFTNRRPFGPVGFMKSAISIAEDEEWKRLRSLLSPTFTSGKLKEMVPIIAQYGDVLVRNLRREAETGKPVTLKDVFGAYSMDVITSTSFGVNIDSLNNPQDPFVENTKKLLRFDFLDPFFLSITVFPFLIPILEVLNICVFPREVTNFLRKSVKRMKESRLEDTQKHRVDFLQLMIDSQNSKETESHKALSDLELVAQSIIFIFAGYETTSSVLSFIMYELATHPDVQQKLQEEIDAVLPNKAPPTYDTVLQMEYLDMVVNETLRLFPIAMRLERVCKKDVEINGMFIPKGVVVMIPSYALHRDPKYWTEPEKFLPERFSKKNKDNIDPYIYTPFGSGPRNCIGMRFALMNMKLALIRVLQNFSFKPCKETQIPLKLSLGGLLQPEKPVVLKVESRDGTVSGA
Cytochrome P450 2D6, sequence (P10635 whole entry): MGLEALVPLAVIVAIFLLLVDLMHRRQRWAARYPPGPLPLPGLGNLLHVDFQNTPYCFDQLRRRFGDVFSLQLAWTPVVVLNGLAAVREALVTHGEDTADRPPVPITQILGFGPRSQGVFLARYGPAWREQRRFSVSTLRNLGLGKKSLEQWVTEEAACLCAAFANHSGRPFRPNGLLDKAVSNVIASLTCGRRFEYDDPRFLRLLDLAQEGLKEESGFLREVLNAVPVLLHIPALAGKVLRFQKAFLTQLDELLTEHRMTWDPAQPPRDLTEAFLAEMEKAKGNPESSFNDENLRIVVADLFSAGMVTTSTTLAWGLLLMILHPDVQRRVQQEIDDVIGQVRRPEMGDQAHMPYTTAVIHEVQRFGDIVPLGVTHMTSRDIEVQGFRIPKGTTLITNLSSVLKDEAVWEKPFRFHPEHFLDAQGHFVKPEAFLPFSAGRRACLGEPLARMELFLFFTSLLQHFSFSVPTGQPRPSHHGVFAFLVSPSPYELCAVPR

- half-life [1]: 115 min
- microsomal CLint [1]: 15 µL/min/mg
- microsomal CLint [2]: 25 µL/min/mg
- solubility thermodynamic at 24 h [3]: 12.7 µg/mL (≈ 27.2 µM)
- logD [4]: > 5.95
- fraction unbound [5]: 0.01
- solubility thermodynamic at 24 h [6]: < 0.25 µg/mL
- fraction unbound [7]: < 0.001
- solubility thermodynamic at 24 h [8]: 53.1 µg/mL (≈ 114 µM)
- remaining at 4 h [9]: 108%
- half-life [10]: 45 min
- remaining at 4 h ([11]; human): 97%
- remaining at 4 h ([11]; rat): 96%
- solubility thermodynamic at 24 h [12]: < 0.25 µg/mL
- IC50 [13]: > 20 µM
- IC50 [14]: > 20 µM
- remaining at 4 h [15]: 102%
- fraction unbound [16]: 0.002
- chromatographic logD [17]: > 5.3
- pKa [18]: 2.41
- IC50 [19]: 17 nM
- IC50 [19, 44]: 14 nM
- solubility kinetic [20]: > 100 µg/mL
- half-life [21]: 73 min
- microsomal CLint [21]: 24 µL/min/mg
- chromatographic logD [22]: > 6.05
- microsomal CLint [23]: 39 µL/min/mg
- IC90 [24]: 31 nM and 25 nM
- fraction unbound [25]: < 0.001
- half-life [26]: 70 min
- remaining at 4 h ([27]; human): 101%
- remaining at 4 h ([27]; rat): 115%
- fraction unbound [28]: < 0.001
- solubility kinetic [29]: < 1.6 µg/mL
- fraction unbound [30]: 0.004
- chromatographic logD [31]: > 6.07
- solubility thermodynamic at 24 h [32]: 9680 µg/mL (≈ 20800 µM)
- solubility thermodynamic at 24 h [33]: 1430 µg/mL (≈ 3070 µM)
- chromatographic logD [34]: 5
Structure (SMILES): FC(F)(F)c1ccc(N(c2cccnc2)C2CCN(c3ccc(C(F)(F)F)cn3)CC2)cc1
- % inhibition [35]: 37.9%
- IC50 [36]: > 100 µM

- chromatographic logD [37]: 5
- IC50 [38]: > 10 µM
- half-life [10]: 56 min
- IC50 [19]: 5.4 nM and 5 nM
- IC50 [19, 44]: 3.65 nM
- microsomal CLint [23]: 30.9 µL/min/mg
- IC90 [24]: 10 nM
- IC90 [24, 44]: 9.15 nM
- hepatic extraction ratio [39]: 0.63
- solubility kinetic [40]: < 1.6 µg/mL
Structure (SMILES): FC(F)(F)c1ccc(N(c2cncnc2)C2CCN(c3ccc(C(F)(F)F)cn3)CC2)cc1
- IC50 [36]: 93.2 µM

- half-life [1]: 4.9 min
- microsomal CLint [1]: 357 µL/min/mg
- hepatic extraction ratio [1]: 0.92
- half-life [10]: 9.9 min
- IC50 [41]: 800 nM
- IC50 [19, 44]: 0.595 nM
- solubility kinetic [20]: > 100 µg/mL
- microsomal CLint [23]: 175 µL/min/mg
- IC90 [24, 44]: 1.93 nM
- hepatic extraction ratio [39]: 0.91
- chromatographic logD [34]: 2.4
Structure (SMILES): CC(C)(C)CC(=O)N1CCC(N(c2ccc(Cl)cc2)c2cccnc2)CC1
- % inhibition [35]: 42.9%

- half-life [1]: 21.8 min
- microsomal CLint [1]: 79.3 µL/min/mg
- hepatic extraction ratio [1]: 0.72
- half-life [10]: 11.8 min
- chromatographic logD [17]: 3.5
- IC50 [19]: 8 nM and 3.04 nM
- solubility kinetic [20]: > 100 µg/mL
- microsomal CLint [23]: 147 µL/min/mg
- IC90 [24]: 47 nM and 8.38 nM
- solubility kinetic [29]: 12.5 µg/mL (≈ 28.1 µM)
- hepatic extraction ratio [39]: 0.89
- chromatographic logD [34]: 2.4
- IC50 [43]: 2.1 µM
Structure (SMILES): Cc1noc(C)c1C(=O)N1CCC(N(c2ccc(C(F)(F)F)cc2)c2cccnc2)CC1
- IC50 [42]: 78.5 µM
- IC50 [36]: > 100 µM

- half-life [1]: 16.6 min
- microsomal CLint [1]: 105 µL/min/mg
- hepatic extraction ratio [1]: 0.77
- half-life [10]: 13.2 min
- chromatographic logD [17]: 4.1
- IC50 [19]: 7.83 nM
- IC50 [19, 44]: 15 nM
- solubility kinetic [20]: > 100 µg/mL
- microsomal CLint [23]: 131 µL/min/mg
- IC90 [24]: 20.7 nM
- IC90 [24, 44]: 28 nM
- solubility kinetic [29]: 3.1 µg/mL (≈ 6.99 µM)
- hepatic extraction ratio [39]: 0.88
- chromatographic logD [34]: 3.1
- IC50 [43]: 4.4 µM
Structure (SMILES): O=C(c1ccc(F)cc1)N1CCC(N(c2ccc(C(F)(F)F)cc2)c2cccnc2)CC1
- IC50 [42]: 44.5 µM
- IC50 [36]: 54.3 µM
